According to patent publication US20190117624A1, “THERAPEUTIC AGENT FOR INFLAMMATORY BOWEL DISEASES” (DAIICHI SANKYO COMPANY, LIMITED, priority 2016, published 2019):

Test system: dextran sodium sulfate-induced ulcerative colitis in rats
Experiment: Drug efficacy on dextran sodium sulfate-induced ulcerative colitis in rats (erosion area of the large intestinal mucosa)
Format: in vivo, rat
Details: for erosion area / inhibition rate (erosion area): 14 days; for erosion area: DSS colitis rats, mean±standard error, control 330.3±15.4; for inhibition rate (erosion area): vs control group
Description: The test of drug efficacy of a TAFIa inhibitor on dextran sodium sulfate-induced ulcerative colitis in rats will be described below. This test was conducted by commissioning to NISSEI BILIS Co., Ltd.
A TAFIa inhibitor, (2S)-5-amino-2-{[1-(trans-4-methylcyclohexyl)-1H-imidazol-4-yl]methyl}valeric acid p-toluenesulfonate anhydride (hereinafter referred to as “compound A”) was dissolved in a 0.5% aqueous sodium carboxymethylcellulose solution (hereinafter referred to as “CMC-Na”) to prepare a dosing solution for oral administration of 0.6, 2, 6 and 20 mg/mL. The dosage was determined by conversion into a free form with a conversion factor of 0.6301. The chemical structure of compound A is as follows: […]
7-Week old male LEW/SsN Slc rats (Japan SLC, Inc.) were allowed to drink 3% dextran sodium sulfate (hereinafter referred to as “DSS”) freely to create ulcerative colitis models. Individuals meeting selection criteria for model animals shown in 1-3 below were selected followed by switching to free drinking of 1% aqueous DSS solution to maintain the ulcerative colitis models.
Thereafter, animals that met the selection criteria were selected.
The tests were conducted in two separate groups (the first half: 5 animals/group; the second half: 5 animals/group). The untreated individuals and the individuals meeting the above selection criteria were selected as adopted animals, and grouped into groups of 5 animals/group with the body weight as a main parameter and the hemoglobin concentration as a secondary parameter, according to stratified randomized assignment so as not to cause a difference in the average value among the groups (the total of two tests: 10 animals/group).
Administration route: Oral administration
Administration volume: 5 mL/kg
[…] Administration was conducted by masking the test groups (that is, individual identification numbers were recorded in the animal cards, and administration was conducted in a blinded manner). Note that the administration on the selection day (the first day of administration) was conducted only once in the afternoon.
Each of animals was fasted from the end of the final administration. On the day of dissection, approximately 3 mL of blood was collected from the abdominal aorta under anesthesia with pentobarbital sodium (30 mg/kg, i.p.) by using a polypropylene disposable syringe and an injection needle. Immediately after blood collection, the large intestine (the colon and the rectum) was isolated and immersed in physiological saline kept warm at approximately 37° C., and the length of the large intestine was measured in a relaxed state. Thereafter, a 10% neutral buffered formalin solution was infused into the large intestine, and the large intestine was immersed in physiological saline with the lumen expanded and temporarily fixed for 1 hour or more. After temporary fixation, the large intestine was dissected along the mesentery attachment site, immersed in a stretched state in a 10% neutral buffered formalin solution, and fixed for 1 week or more. The fixed large intestine specimen was washed with running water for approximately 5 minutes, further with distilled water three times, and then immersed in a 3% aqueous acetic acid solution for approximately 5 minutes as a pretreatment.
The large intestine specimen stained with a 1% Alcian blue solution was photographed. The photograph was captured on an image analysis device (general-purpose image processor WinROOF, Version 5.7, MITANI CORPORATION), and the area of deep blue part was measured. This measurement value was used as the erosion area.
The erosion area was expressed as mean±standard error. A significant difference test between the control group and each group was conducted by a homoscedasticity test (F-test) followed by Student's t test in the case of homoscedasticity and by Aspin-Welch's t test in the case of heteroscedasticity (significance level: 5%).

SMILES | erosion area (300 mg/kg orally once a day) [mm^2] | inhibition rate (erosion area) (300 mg/kg orally once a day) [%] | erosion area compared to the control group (significance) (300 mg/kg orally once a day, Student's t test P<0.05) | erosion area compared to the control group (significance) (3 mg/kg orally twice a day) | erosion area (3 mg/kg orally twice a day) [mm^2] | inhibition rate (erosion area) (3 mg/kg orally twice a day) [%] | erosion area (10 mg/kg orally twice a day) [mm^2] | inhibition rate (erosion area) (10 mg/kg orally twice a day) [%] | erosion area compared to the control group (significance) (10 mg/kg orally twice a day, Student's t test P<0.05) | erosion area (30 mg/kg orally once a day) [mm^2] | inhibition rate (erosion area) (30 mg/kg orally once a day) [%] | erosion area compared to the control group (significance) (30 mg/kg orally once a day, Student's t test P<0.01) | erosion area (30 mg/kg orally twice a day) [mm^2] | inhibition rate (erosion area) (30 mg/kg orally twice a day) [%] | erosion area compared to the control group (significance) (30 mg/kg orally twice a day, Student's t test P<0.01) | erosion area (100 mg/kg orally twice a day) [mm^2] | inhibition rate (erosion area) (100 mg/kg orally twice a day) [%] | erosion area compared to the control group (significance) (100 mg/kg orally twice a day, Student's t test P<0.01) | reduction effect of the erosion area (overall conclusion) (rat ulcerative colitis model)
O=C(O)c1cc(/N=N/c2ccc(S(=O)(=O)Nc3ccccn3)cc2)ccc1O [SASP, Salazosulfapyridine, reference compound] | 261.6±22.7 | 20.8 | significant reduction in the erosion area | – | – | – | – | – | – | – | – | – | – | – | – | – | – | – | –
C[C@H]1CC[C@H](n2cnc(C[C@H](CCCN)C(=O)O)c2)CC1.Cc1ccc(S(=O)(=O)O)cc1 [compound A, (2S)-5-amino-2-{[1-(trans-4-methylcyclohexyl)-1H-imidazol-4-yl]methyl}valeric acid p-toluenesulfonate anhydride] | – | – | – | No significant difference | 291.8±13.1 | 11.7 | 281.6±11.1 | 14.7 | significant reduction in the erosion area | 264.0±7.9 | 20.1 | significant reduction in the erosion area | 262.89±13.9 | 20.4 | significant reduction in the erosion area | 261.9±12.7 | 20.7 | significant reduction in the erosion area | significant reduction effect of the erosion area
